Entries after “also recorded” stand apart in the source; their conditions may differ.

One series has as its system pulmonary fibrosis. The series is described as follows: Inventors' observation on dexamethasone in pulmonary fibrosis. Particulars: compared to non-treated controls. Format: in vivo.
Series [1] deals with ACTH (adrenocorticotropic hormone); growth hormone (GH). Particulars: in vivo. The method, then:
The chemical structure of GA is similar to that of cortisol. Thus, this Example investigates whether the long-term use of GA would affect the production of cortisol and cause side effects. The plasma levels of ACTH (adrenocorticotropic hormone), a […], were measured using ELISA at Weeks 6, 7, and 10 after GA-treatments (40 mg/kg, god, p.o).
In addition, plasma levels of growth hormone (GH) were measured using ELISA at Weeks 6, 7, and 10 after GA treatments.

In series [2] the test system is mice with IR-induced pulmonary fibrosis. The series is described as follows: Lung density by cone beam CT scan (CBCT). It is filed as in vivo. The settings on record: for lung density (abnormal increase): 7.5 months after IR 15 Gy, P<0.05. The method, then: To assess effects of GA on lung density, cone beam CT scan (CBCT) of mouse lungs was performed. CBCT provides a complete 3D 650×650×428 scan (i.e. 428 slices) of the lungs with isotropic resolution at 270 μm (central slice shown in FIG. 11) in 30 seconds. The scanner achieves a CT density sensitivity of ˜[…], and thus, changes in lung density can be discerned. The CBCT imaging data were further analyzed using MATLAB software. The lungs were automatically segmented (FIG. 12A) and a 3D image was generated for each mouse lung (FIG. 12B). To reduce the effect of cardiac motion on the mean value of lung density, boundaries of the lungs were not used for analysis. A histogram of voxel intensity (pulmonary tissue density) of each mouse was created (FIG. 13).

For series [3], the system named is inflammatory mediators (IMs), including IL1a, TNFa, PF4 and VCAM-1. Briefly: Inflammatory mediators in lung homogenates by ELISA, acute phase of IR-induced pneumonitis. It is filed as in vivo, C57BL/6 fibrosis-prone mice. Particulars: 2.5 days after thoracic IR 15 Gy; treatment from 6 h after IR; vs vehicle, p<0.05. The method, then:
(§1) Briefly, C57BL/6 fibrosis-prone mice received a single-dose of thoracic IR at 15 Gy with a dose rate of 1.9 Gy/min. Six hours after IR exposure, the mice were divided into the following treatment groups: 1) normal (received 0 Gy; no treatment); 2) vehicle-treated; 3) GA-treated (30-40 mg/kg/q.o.d) (i.e. every other day) (the GA dosage used herein was derived from the effective dosage for humans (3-4 mg/kg), which is typically 6-10 times lower than that of mice); 4) dexamethasone-treated (Positive Control 1) (Dex, 3 mg/kg, i.m. or p.o. qod); 5) amifostine-treated (Positive Control 2) (Ami, 200 mg/kg/ i.v, 0.5 hr prior to irradiation); and 6) celebrex-treated (Positive Control 3) (30 mg/kg, po, qod).
The mice were sacrificed 2.5 days after IR exposure, and fresh lung tissue homogenates were prepared using lysis buffer mixed with protenase inhibitor cocktails. After protein concentration was adjusted to 1 mg/ml, the fresh lung homogenates were added to ELISA plates at a concentration of 100 μl/well. The levels of inflammatory mediators were measured by ELISA.
On the technique in general: An ELISA detects its analyte on a solid surface through an enzyme-linked reagent.

Series [4] concerns mice with IR-induced pulmonary fibrosis. Briefly: Lung compliance (plethysmograph pressure-volume measurements). Format: in vivo. Particulars: 6.5 months after IR 15 Gy; P<0.05. How it is done:
To assess the effects of GA on lung compliance, mice were anesthetized and their trachea were surgically exposed and incised. An 18-gauge, 1 cm stainless steel tube was inserted into the trachea and secured with surgical sutures. The respiratory rate and tidal volume of the mice were measured by a Harvard rodent ventilator. The average respiratory rate was 150 breaths per minute and the tidal volume was adjusted according to the weight (0.01 ml per gram body weight). The mice were then placed in a plethysmograph for pressure-volume measurements.

For series [5] the test system is unchanged. Briefly: Lung histology (H&E, trichrome), hydroxyproline and TGFβ in IR-induced fibrosis. Format: in vivo. How it is done: Briefly, mice treated with GA (40 mg/kg/q.o.d.) for 3 months were sacrificed 7 months after IR exposure at 15 Gy, and lung tissue specimens were stained using hematoxylin and eosin (H&E) stain.
To assess whether GA reduces abnormal collagen deposition in lungs, lung tissue specimen was stained with collagen-binding trichrome blue dye.
The reduction of collagen deposition was further analyzed by measuring the levels of hydroxyproline, a key component of collagen.

For series [6], the system named is mice with IR-induced pneumonitis. The series is described as follows: Lung morphology, plasma exudation and inflammatory cell infiltration, acute phase of IR-induced pneumonitis. It is filed as in vivo, C57BL/6 fibrosis-prone mice. Particulars: 2.5 days after thoracic IR 15 Gy. How it is done:
as §1
Briefly, C57BL/6 fibrosis-prone mice received a single-dose of thoracic IR at 15 Gy with a dose rate of 1.9 Gy/min and were treated as described in Example 2. The mice were sacrificed 2.5 days after IR exposure, and lung tissues were harvested and analyzed for morphological changes.

A further series concerns SP-D and IL1a. The series is described as follows: Plasma levels of SP-D and IL1a, acute phase of IR-induced pneumonitis. Particulars: 2.5 days after thoracic IR; P<0.05. It is filed as in vivo, C57BL/6 fibrosis-prone mice. How it is done: as §1
IR damages lung epithelium and endothelium cells, and causes dysfunction of tight junction, increased cellular permeability, and the loss of integrity of the alveolar-capillary barrier. As a result, SP-D and IL1a abnormally enter into the blood from inflamed pulmonary tissue, leading to elevated plasma levels of SP-D and IL1a.
In this Example, C57BL/6 fibrosis-prone mice received a single-dose of thoracic IR at 15 Gy with a dose rate of 1.9 Gy/min and were treated as described in Example 2. The mice were sacrificed 2.5 days after IR exposure, and plasma levels of SP-D and IL1a were measured.

Series [7] has as its system mice with IR-induced pulmonary fibrosis. The series is described as follows: Respiratory rate in IR-induced pulmonary fibrosis (ventilator with pressure plethysmograph). It is filed as in vivo. How it is done: Mice exposed to thoracic IR develops pulmonary fibrosis 6 months after IR exposure at 18 Gy, 8 months after IR exposure at 15 Gy, and 10 months after IR exposure at 12.5 Gy. To access the treatment effects of GA on lung fibrosis and lung function, the respiratory rate, lung density, and lung compliance of the mice were determined.
To assess improvement on respiratory function, mice exposed to thoracic IR at 15 Gy were treated with GA (30-40 mg/kg) q.o.d. or twice/week for 3 months. Mouse respiratory rate was measured using a Harvard rodent ventilator connected to a pressure plethysmograph.

Series [8] in a line: Toxicity of long-term use: activity, fur morphology, body weight. It is filed as in vivo.
Series [9] deals with mice with IR-induced pneumonitis. The series is described as follows: Sub-acute phase of IR-induced pneumonitis: lung tissue and BALF assays. Format: in vivo, C57BL/6 fibrosis-prone mice. How it is done:
as §1
Briefly, C57BL/6 fibrosis-prone mice received a thoracic IR and were treated as described in Example 2. The mice were sacrificed 17 days after IR exposure, and lung tissues were harvested. Bronchoalveolar lavage fluid (BALF) assays were performed.

Series [10] deals with IL1a, TNFa, lymphotactin and p-selectin. The series is described as follows: Inflammatory mediators, sub-acute phase, GA administered 24 hours after IR exposure. The settings on record: GA given 24 hours after thoracic IR at 5, 10 and 15 Gy. It is filed as in vivo, mice. How it is done:
The administration of GA 24 hours after IR exposure can effectively block the surge in inflammatory responses.

Another series relates to IR-induced pneumonitis. The series is described as follows: GLA tablets in a lung cancer patient receiving 2nd IR treatment. Particulars: one patient. It is filed as in vivo. How it is done: In collaboration with radiation oncologists at the First Affiliated Hospital of Fujian Medical School in China, GLA tablets (produced by Minophagen Co. in Japan and available in pharmacies in China) were administered to a patient who received their 2nd IR treatment for lung cancer. […] To control the progression of pneumonitis, they received dexamethasone treatment. Due to tumor re-growth 9 months after their 1st IR treatment, they received a 2nd IR treatment with warnings that IR may worsen pneumonitis.
In order to mitigate IR-induced lung injury, GLA was administered at a does of 150 mg per day (equivalent to GA about 85 mg per day) starting from the date of 2nd treatment for 3 months. The result was unexpectedly surprising.

For the molecule `C[C@@H]1C[C@H]2[C@@H]3CCC4=CC(=O)C=C[C@]4(C)[C@@]3(F)[C@@H](O)C[C@]2(C)[C@@]1(O)C(=O)CO` [dexamethasone, reference compound], in the series on pulmonary fibrosis, the “course of pulmonary fibrosis and survival” value is “may result in worsening of pulmonary fibrosis, leading to lung failure or even earlier death”. In series [1], the “plasma growth hormone (GH) level” value is listed as “increased” and the “reduction in plasma ACTH levels” value was 10-50 fold.
As to glycyrrhetinic acid [GA], in series [2] (1 year post IR exposure at 18 Gy, normal control −454, IR without treatment −364), the “Mean Density (lung density)” value is −458 HU. Besides, in series [2], the “lung density (abnormal increase)” value was “significantly reduced; also recorded: reduces lung density”. Besides, the “levels of inflammatory mediators (IL1a, TNFa, PF4, VCAM-1) in lung homogenates” value (from here on “levels of inflammatory mediators”) in [3] is “effectively reduced levels of IMs; also recorded: inhibition effects”. In addition, in [4], the lung compliance result is “potently, and mostly effectively, enhanced”. Moreover, the “lung morphology (H&E stain)” value in [5] (GA 40 mg/kg/q.o.d. for 3 months, 7 months after IR 15 Gy) was “near-normal morphology; also recorded: mitigates IR-induced pulmonary fibrosis”. Also, in series [5] (IR-exposed mice), the “collagen deposition (trichrome blue dye)” value was “reduces collagen deposition; also recorded: mitigates IR-induced lung fibrosis” and the “level of TGFβ” value was “reduced”. In addition, the “hydroxyproline levels in the lungs” value in series [5] (vs IR + vehicle control, P<0.05) is on record as “reduced; also recorded: reduces collagen deposition”. The “plasma growth hormone (GH) level” value in [1] was “increased”. Moreover, in series [1] (40 mg/kg), the “plasma ACTH levels” value is listed as “rapidly returned to normal”. For the same molecule, in [6], the “plasma exudation and inflammatory cell infiltration into the interstitial space” value is “potently suppressed; also recorded: reduces inflammatory cell infiltration and plasma exudation”. Also, in the series with SP-D and IL1a, the “plasma levels of IL1a” value is “effectively reduced; also recorded: reduces plasma levels of SP-D and ILa”; the “plasma levels of SP-D” value is given as “effectively reduced; also recorded: reduces plasma levels of SP-D”. Also, the respiratory rate entry in [7] (5 months after IR 18 Gy) was “reduction of respiratory rate”. Besides, in [7] (7 months after IR 15 Gy, GA 30-40 mg/kg q.o.d. or twice/week for 3 months, P<0.05), the respiratory rate entry is listed as “effectively reduced; also recorded: reduction of respiratory rate”. For the same molecule, the death during treatment result in [8] (long-term GA treatment) is recorded as “No mouse died”. The “side effects (activity, fur morphology, body weight)” value in series [8] (long-term use) was “little side effects”. Moreover, the “infiltration of neutrophils into the interstitial fluid (lung tissue)” value in series [9] (17 days after IR 15 Gy) is on record as “suppression of infiltration of neutrophils; also recorded: mitigates the sub-acute phase of IR-induced pneumonitis”. Besides, in series [9] (17 days after IR 15 Gy, P<0.05), the “myeloperoxidase (MPO) activity in BALF” value was “reduces” and the “neutrophils infiltrated into bronchoalveolar lavage fluid” value is reported as “reduced; also recorded: reduces the number of neutrophils”. Also, the “levels of lymphotactin and p-selectin” value in series [9] (17 days after IR exposure, P<0.05) was “reduced; also recorded: reduces the levels of inflammatory mediators”. Also, the “levels of IL1a, TNFa, lymphotactin and p-selectin” value in series [10] is given as “potently reduced; also recorded: inhibits inflammatory responses”.
Turning to `NCCCNCCSP(=O)(O)O` [amifostine, reference compound], the “levels of inflammatory mediators” value in series [3] is given as “extent of inhibition by GA was comparable”. Moreover, in series [6], the “plasma exudation and inflammatory cell infiltration into the interstitial space” value is on record as “produced similar treatment effects”.
Regarding `Cc1ccc(-c2cc(C(F)(F)F)nn2-c2ccc(S(N)(=O)=O)cc2)cc1` [celebrex, reference compound], the “lung density (abnormal increase)” value in series [2] was “reduction in lung density by GA is more potent that of celebrex”. In [3], the “levels of inflammatory mediators” value is recorded as “extent of inhibition by GA was comparable”. Moreover, in [6], the “plasma exudation and inflammatory cell infiltration into the interstitial space” value was “produced similar treatment effects”. Also, in series [8] (7.5 months post IR 15 Gy, vehicle-treated mice lost 6-7 g), the body weight entry is on record as “less severe loss of BW”.
Regarding glycyrrhizic acid [GLA], in the series with IR-induced pneumonitis (150 mg per day for 3 months from 2nd IR treatment), the “symptoms of pneumonitis or fibrosis” value was “did not exhibit any symptom of pneumonitis or fibrosis; also recorded: mitigates pneumonitis”. The “lung density (CT)” value in the series on IR-induced pneumonitis (CT of 1st vs 2nd IR treatment) is on record as “significantly reduced”.
